From publication doi:10.1101/2025.06.29.662197v2 (biorxiv, 2026)
pIC50: −log10 of the molar value.

Key:
Format in all cases: biochemical
[1] = biological target: human GCN2 (full length, purified; Carna Bioscience # 05-153) (Homo sapiens, UniProt Q9P2K8); assay: LanthaScreen TR-FRET kinase assay, GFP-eIF2alpha
[2] = biological target: human HRI (Carna Bioscience # 05-154) (Homo sapiens, UniProt Q9BQI3); assay: LanthaScreen TR-FRET kinase assay, GFP-eIF2alpha
[3] = biological target: human PKR (Carna Bioscience # 05-156) (Homo sapiens, UniProt P19525); assay: LanthaScreen TR-FRET kinase assay, GFP-eIF2alpha
[4] = biological target: full-length human GCN2 (N-terminal twin StrepII tag) (Homo sapiens, UniProt Q9P2K8); assay: in vitro kinase assay, immunoblot of p-Ser51 eIF2alpha; settings: 100 uM ATP, 2 uM full-length eIF2alpha, 30 °C, 20 min, no tRNA
Sequence of full-length human GCN2 (N-terminal twin StrepII tag) (Q9P2K8 whole entry): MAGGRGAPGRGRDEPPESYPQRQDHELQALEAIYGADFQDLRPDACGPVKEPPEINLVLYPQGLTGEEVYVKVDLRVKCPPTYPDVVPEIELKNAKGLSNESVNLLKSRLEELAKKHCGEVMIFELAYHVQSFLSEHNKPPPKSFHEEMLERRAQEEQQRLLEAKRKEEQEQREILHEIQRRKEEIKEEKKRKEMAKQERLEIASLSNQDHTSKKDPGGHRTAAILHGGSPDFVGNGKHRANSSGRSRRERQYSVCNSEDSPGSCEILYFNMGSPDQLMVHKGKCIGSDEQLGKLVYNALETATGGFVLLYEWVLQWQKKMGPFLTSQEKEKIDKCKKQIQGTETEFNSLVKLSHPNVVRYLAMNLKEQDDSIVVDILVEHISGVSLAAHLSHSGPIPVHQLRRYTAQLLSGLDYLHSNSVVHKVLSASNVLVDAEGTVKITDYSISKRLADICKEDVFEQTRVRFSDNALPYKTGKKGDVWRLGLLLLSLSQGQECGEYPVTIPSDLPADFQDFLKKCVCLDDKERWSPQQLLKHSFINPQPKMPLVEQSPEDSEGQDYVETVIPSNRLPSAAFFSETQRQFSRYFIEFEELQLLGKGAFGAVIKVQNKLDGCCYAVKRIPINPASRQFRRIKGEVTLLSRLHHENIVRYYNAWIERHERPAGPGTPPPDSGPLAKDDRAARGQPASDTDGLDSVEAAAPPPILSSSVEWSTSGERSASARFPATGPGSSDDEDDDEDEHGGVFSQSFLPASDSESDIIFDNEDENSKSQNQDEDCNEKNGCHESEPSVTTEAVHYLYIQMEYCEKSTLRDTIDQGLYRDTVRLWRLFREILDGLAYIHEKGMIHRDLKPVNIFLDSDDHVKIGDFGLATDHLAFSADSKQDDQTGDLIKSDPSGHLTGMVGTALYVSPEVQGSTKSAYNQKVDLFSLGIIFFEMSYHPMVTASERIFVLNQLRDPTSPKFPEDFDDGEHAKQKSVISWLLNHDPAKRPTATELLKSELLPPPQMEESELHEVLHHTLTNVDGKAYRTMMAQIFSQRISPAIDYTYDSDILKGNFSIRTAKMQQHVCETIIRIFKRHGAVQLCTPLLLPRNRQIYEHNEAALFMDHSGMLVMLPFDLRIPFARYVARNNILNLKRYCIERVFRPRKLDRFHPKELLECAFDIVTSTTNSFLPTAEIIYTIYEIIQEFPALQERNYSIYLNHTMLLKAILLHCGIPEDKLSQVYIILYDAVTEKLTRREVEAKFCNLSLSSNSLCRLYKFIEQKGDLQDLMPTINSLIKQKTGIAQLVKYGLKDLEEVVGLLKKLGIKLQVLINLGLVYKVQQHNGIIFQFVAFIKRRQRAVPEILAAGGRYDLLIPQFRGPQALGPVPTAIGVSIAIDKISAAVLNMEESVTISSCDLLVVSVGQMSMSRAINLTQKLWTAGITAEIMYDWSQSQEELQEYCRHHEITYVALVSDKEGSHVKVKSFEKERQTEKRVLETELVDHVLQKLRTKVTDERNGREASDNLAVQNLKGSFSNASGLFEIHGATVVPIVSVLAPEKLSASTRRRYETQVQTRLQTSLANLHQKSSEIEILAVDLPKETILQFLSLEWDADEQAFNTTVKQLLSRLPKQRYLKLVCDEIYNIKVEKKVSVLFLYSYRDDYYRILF

Sequence of human GCN2 (full length, purified; Carna Bioscience # 05-153) (Q9P2K8 whole entry): as above
Sequence of human PKR (Carna Bioscience # 05-156) (P19525 2-551): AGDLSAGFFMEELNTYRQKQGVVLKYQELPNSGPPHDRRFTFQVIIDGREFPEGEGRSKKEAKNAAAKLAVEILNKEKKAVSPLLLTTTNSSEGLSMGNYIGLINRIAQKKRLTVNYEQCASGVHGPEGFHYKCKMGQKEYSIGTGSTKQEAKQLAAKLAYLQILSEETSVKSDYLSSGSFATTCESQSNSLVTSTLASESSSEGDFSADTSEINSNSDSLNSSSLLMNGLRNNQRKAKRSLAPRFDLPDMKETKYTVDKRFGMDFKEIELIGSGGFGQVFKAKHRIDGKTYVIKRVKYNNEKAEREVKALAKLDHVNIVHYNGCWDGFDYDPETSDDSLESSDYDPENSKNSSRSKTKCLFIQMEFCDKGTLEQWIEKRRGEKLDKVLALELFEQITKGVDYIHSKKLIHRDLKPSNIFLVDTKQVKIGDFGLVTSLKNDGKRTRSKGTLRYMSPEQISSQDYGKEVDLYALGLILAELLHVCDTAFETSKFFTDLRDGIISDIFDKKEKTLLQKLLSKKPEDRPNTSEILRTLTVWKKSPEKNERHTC
Sequence of human HRI (Carna Bioscience # 05-154) (Q9BQI3 whole entry): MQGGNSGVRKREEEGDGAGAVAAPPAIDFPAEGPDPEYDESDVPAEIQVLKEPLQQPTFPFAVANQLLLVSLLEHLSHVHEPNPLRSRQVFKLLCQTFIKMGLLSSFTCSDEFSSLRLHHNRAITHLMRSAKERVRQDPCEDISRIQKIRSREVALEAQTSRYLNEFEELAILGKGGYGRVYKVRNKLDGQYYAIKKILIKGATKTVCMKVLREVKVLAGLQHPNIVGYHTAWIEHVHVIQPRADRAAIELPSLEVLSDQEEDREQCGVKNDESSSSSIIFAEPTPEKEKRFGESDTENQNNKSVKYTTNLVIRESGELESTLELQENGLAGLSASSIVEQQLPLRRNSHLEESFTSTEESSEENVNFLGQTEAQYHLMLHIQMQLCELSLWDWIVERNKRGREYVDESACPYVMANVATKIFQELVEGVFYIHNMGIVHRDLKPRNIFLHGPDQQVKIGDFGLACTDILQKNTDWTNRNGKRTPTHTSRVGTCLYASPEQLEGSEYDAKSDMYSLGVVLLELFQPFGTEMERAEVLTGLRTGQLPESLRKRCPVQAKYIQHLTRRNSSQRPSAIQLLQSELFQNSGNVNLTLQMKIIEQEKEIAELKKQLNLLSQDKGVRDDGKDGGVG

SMILES | pIC50 [1] | pIC50 [2] | pIC50 [3] | fold activation [4]
COc1ncc(Cl)cc1S(=O)(=O)Nc1ccc(F)c(C#Cc2cnc(N)nc2)c1F [GCN2iB] | 8.81 | 8.56 | 5.49 | 
Cc1nn(-c2ccccc2)c2sc(C(=O)Nc3ccc(S(=O)(=O)NCc4ccco4)cc3)cc12 [compound 18, N-(4-{[(furan-2-yl)methyl]sulfamoyl}phenyl)-3-methyl-1-phenyl-1H-thieno[2,3-c]pyrazole-5-carboxamide] | < 5.52 |  | 5.35 | 
Cc1nc(N)sc1-c1csc(Nc2ncccn2)n1 [compound 20, 4’-methyl-N∼2∼-2-pyrimidinyl-4,5’-bi-1,3-thiazole-2,2’-diamine] | < 5.52 |  | 5.43 | ~ 40 fold
CS(=O)(=O)c1ncc(-c2ccc(Br)cc2)cn1 [compound 21, 5-(4-bromophenyl)-2-(methylsulfonyl)pyrimidine] | < 5.52 |  |  | 
